Measured values reported in ChEMBL document CHEMBL3507680, “University of Dundee, Gates Library screen for HepG2 cell viability”.

Assay: Human HepG2 cell viability assay in 384 well format
Assay type: toxicity, cell-based
Design: dose 125 nL, time 70.5 hour; cytotoxicity at 70.5 h: concentration not given beside the values
Conditions: HepG2 cells, read-out: Inhibition

For `Cc1ccccc1C(NC(=O)Cn1cc(C2CC2)nn1)C1CC1` (stereo unspecified), the cytotoxicity at 70.5 h was -3.63%.

For `Cc1c(I)cccc1C(=O)NCc1nnc[nH]1`, the cytotoxicity at 70.5 h was -8.8%.

With `CNC(=O)c1cccc(CNC(C)c2ccc(F)cc2N(C)C)c1` (stereo unspecified) the cytotoxicity at 70.5 h was -7.51%.

`Cc1n[nH]c(C)c1C1CCCN1C(=O)c1cc(Br)c[nH]1` (stereo unspecified) showed a cytotoxicity at 70.5 h of 12.3%.

In the case of `CCN(C(=O)c1cccc2c1OCO2)c1ccc(Br)cn1`, the cytotoxicity at 70.5 h is reported as -7.06%.

With `NC(=O)c1cccc(CCNC(=O)N2Cc3ccccc3C2)c1` the cytotoxicity at 70.5 h was -2.71%.

Compound `Cc1oc(CN(C)C(=O)c2ccc(Br)cc2)cc1C(=O)O` has a cytotoxicity at 70.5 h of -8.74%.

`CNC(=O)c1cccc(CNC(C)c2cc(C)ccc2OC(F)F)c1` (stereo unspecified) showed a cytotoxicity at 70.5 h of -7.54%.

For `Cc1noc(C)c1CN(Cc1ccccc1)C(C)C`, the cytotoxicity at 70.5 h was 12.4%.

For `Cc1n[nH]c(C)c1C1CCCN1C(=O)c1coc(Br)c1` (stereo unspecified), the cytotoxicity at 70.5 h was -5.01%.

In the case of `CN(Cc1cccs1)C(=O)CNC1CCc2ncnn2C1` (stereo unspecified), the cytotoxicity at 70.5 h is reported as -5.9%.

Compound `C=C(C)CN(CC)Cc1nc(C(C)(C)C)no1` has a cytotoxicity at 70.5 h of 10.8%.

With `CC(C)N(CCNC(=O)c1ccc(S(=O)(=O)NC2CC2)cc1)C(C)C` the cytotoxicity at 70.5 h was 25.6%.

For `COc1ccc(NC(C)=O)cc1OCc1cccnc1`, the cytotoxicity at 70.5 h was 29.5%.

Compound `COc1ccc(NC(=O)C(C)(C)C)cc1OCc1cccnc1` has a cytotoxicity at 70.5 h of 3.3%.

Compound `CCC(CNC(=O)Cc1c(C)noc1C)N1CCCC1` (stereo unspecified) has a cytotoxicity at 70.5 h of -6.77%.

In the case of `Cc1noc(C)c1CC(=O)NCC(CC(C)C)N1CCOCC1` (stereo unspecified), the cytotoxicity at 70.5 h is reported as -4.86%.

With `Cc1noc(C)c1CC(=O)NCC(C)N1CCOCC1` (stereo unspecified) the cytotoxicity at 70.5 h was -2.99%.

With `O=C(Nc1c(F)cccc1Oc1ccccc1)C1CCS(=O)(=O)C1` (stereo unspecified) the cytotoxicity at 70.5 h was -1.02%.

In the case of `CCNC(=O)NC(=O)CN1CCOC(c2ccccc2Cl)C1` (stereo unspecified), the cytotoxicity at 70.5 h is reported as -9.68%.

With `CC(O)CCN(C)c1nc2ccccc2c(=O)[nH]1` (stereo unspecified) the cytotoxicity at 70.5 h was -6.49%.

Compound `COCCC1(CNC(=O)NCC2CCC2)CCC1` has a cytotoxicity at 70.5 h of -0.0221%.

Work on `Cc1csc(CN2CC(CO)Oc3ccccc32)n1` (stereo unspecified) yielded a cytotoxicity at 70.5 h of 7.51%.

In the case of `CN(CCC(F)(F)F)c1nc2ccccc2c(=O)[nH]1`, the cytotoxicity at 70.5 h is reported as 0.426%.

For `Cc1cc(-n2cncn2)ccc1C(=O)Nc1ccc(N2CCCC2)cn1`, the cytotoxicity at 70.5 h was -1.24%.

With `CC(C)Cn1cc(NC(=O)N2CCOC(c3ccccc3)C2)cn1` (stereo unspecified) the cytotoxicity at 70.5 h was -4.35%.

For `CC(C)(C)C(=O)N1CCN(C(=O)Nc2cnn(CC(F)F)c2)CC1`, the cytotoxicity at 70.5 h was -7.22%.

In the case of `COCCC1(CNC(=O)NCC2CCCN(C)C2)CCC1` (stereo unspecified), the cytotoxicity at 70.5 h is reported as -12%.

`O=C(CCN1CCCCCC1c1ccco1)N1CCOCC1` (stereo unspecified) showed a cytotoxicity at 70.5 h of -9.92%.

`CC(C)c1nc(C2CCCN2CCN2CCCCC2)no1` (stereo unspecified) gave a cytotoxicity at 70.5 h of -5.16%.

For `CC(C)N(Cc1ccccn1)C(=O)CN(C)C(=O)c1cccs1`, the cytotoxicity at 70.5 h was -22.7%.

Compound `CC1C(=O)NCCN1CCOc1ccc(C#N)cc1` (stereo unspecified) has a cytotoxicity at 70.5 h of -21.1%.

In the case of `CC(C)(C)c1n[nH]cc1CNC1CCC(O)CC1` (stereo unspecified), the cytotoxicity at 70.5 h is reported as -19.6%.

With `Cc1nc(NC(=O)NCCCN2CCC(C(N)=O)CC2)sc1C` the cytotoxicity at 70.5 h was -19.5%.

`CCC(Nc1ccc(CCN2CCOCC2)cc1)C(N)=O` (stereo unspecified) showed a cytotoxicity at 70.5 h of -19.6%.

Work on `Cc1cc(F)ccc1N1CCCC(NC(=O)CCc2ccncc2)C1` (stereo unspecified) yielded a cytotoxicity at 70.5 h of -23.5%.

`CCOC(=O)C(C)Nc1ccc(CCN2CCOCC2)cc1` (stereo unspecified) showed a cytotoxicity at 70.5 h of -16.3%.

With `O=C(CNc1ccc(OC2CCOC2)cc1)NCc1ccco1` (stereo unspecified) the cytotoxicity at 70.5 h was -21.4%.

`Cc1c(C(=O)NCCCS(C)(=O)=O)cccc1-c1ccccn1` showed a cytotoxicity at 70.5 h of 7.88%.

Compound `Cc1cnn(CCCNC(=O)NCCC(=O)Nc2ccccc2)c1` has a cytotoxicity at 70.5 h of -11.8%.

Work on `CCc1cc(N2CCC(NCc3ccc(C)o3)CC2)ncn1` yielded a cytotoxicity at 70.5 h of 9.42%.

`CCN(Cc1nc(Cc2ccccc2)no1)C1CC1` showed a cytotoxicity at 70.5 h of -4.11%.

For `Cc1ccc2nc(CN3CCCCC3C(=O)N3CCOCC3)cn2c1` (stereo unspecified), the cytotoxicity at 70.5 h was 7.36%.

`CC(C)c1nc(C2CCCN2CCOCC2CC2)no1` (stereo unspecified) gave a cytotoxicity at 70.5 h of -15.5%.

With `CC(C)c1nc(C2CCCN2CCc2ccccn2)no1` (stereo unspecified) the cytotoxicity at 70.5 h was -15.3%.

`O=C(CNc1ccc(OC2CCOC2)cc1)NCc1cccs1` (stereo unspecified) gave a cytotoxicity at 70.5 h of -18.3%.

In the case of `Cc1c(C(=O)NCCC(=O)N2CCCC2)cccc1-c1ccccn1`, the cytotoxicity at 70.5 h is reported as -17.7%.

In the case of `Cc1cc(CC(=O)NC2CCCN(c3ccccc3F)C2=O)n[nH]1` (stereo unspecified), the cytotoxicity at 70.5 h is reported as 2.16%.

For `O=C(CCCn1ccnc1)NC1CCCN(c2ccccc2Cl)C1` (stereo unspecified), the cytotoxicity at 70.5 h was -18%.

For `Cc1csc(N2CCN(CCCN3CCCC3=O)CC2)n1`, the cytotoxicity at 70.5 h was -0.2%.

In the case of `Cc1ccc(S(=O)(=O)NC(=O)c2cc(S(C)(=O)=O)ccc2C)s1`, the cytotoxicity at 70.5 h is reported as -0.802%.

In the case of `O=C(NCCCn1cccn1)c1csc2c1CCCC2`, the cytotoxicity at 70.5 h is reported as -11.3%.

For `CC(C)Oc1nnc(SCC(=O)NCC(=O)N2CCCC2)s1`, the cytotoxicity at 70.5 h was -10.4%.

In the case of `Cc1cc(NCC2CCN(c3ccccc3)C2)n2ncnc2n1` (stereo unspecified), the cytotoxicity at 70.5 h is reported as -1.33%.

Work on `Cc1cc(C)c(CNC(=O)N(C)Cc2nnc3n2CCC3)c(=O)[nH]1` yielded a cytotoxicity at 70.5 h of -10.3%.

`Cc1csc(CNC(=O)N(C)Cc2nnc3n2CCC3)n1` showed a cytotoxicity at 70.5 h of -12.1%.

`Cc1cccc(-c2nc(C)nn2CN2CCC3(CC2)OCCO3)c1` gave a cytotoxicity at 70.5 h of 11.8%.

`Cc1cnn(C2CN(Cc3noc(-c4ccccc4)n3)C2)c1` gave a cytotoxicity at 70.5 h of -7.62%.

`Cc1cc(NC2CCN(c3ccccc3)C2)n2ncnc2n1` (stereo unspecified) gave a cytotoxicity at 70.5 h of -5.01%.

With `Cc1ccc(Oc2cc(CN)ccn2)cc1C` the cytotoxicity at 70.5 h was -22.3%.

For `CC(C)(C)c1n[nH]cc1CNC1CCC(C(F)(F)F)CC1` (stereo unspecified), the cytotoxicity at 70.5 h was -0.127%.
